Reference: patent US20050058658A1, “Compositions and methods for immunotherapy of human immunodeficiency virus (HIV)” (priority 2003, published 2005)

B1: IL-10: interleukin (protein, UniProt P18893 19-178, looked up)
Interleukin-10: SRGQYSREDNNCTHFPVGQSHMLLELRTAFSQVKTFFQTKDQLDNILLTDSLMQDFKGYLGCQALSEMIQFYLVEVMPQAEKHGPEIKEHLNSLGEKLKTLRMRLRRCHRFLPCENKSKAVEQVKSDFNKLQDQGVYKAMNEFDIFINCIEAYMMIKMKS
B2: IL-2: Interleukin 2 (protein, UniProt P04351 21-169, looked up)
Interleukin-2: APTSSSTSSSTAEAQQQQQQQQQQQQHLEQLLMDLQELLSRMENYRNLKLPRMLTFKFYLPKQATELKDLQCLEDELGPLRHVLDLTQSKSFQLEDAENFISNIRVTVVKLKGSDNTFECQFDDESATVVDFLRRWIAFCQSIISTSPQ
B3: IL-1β: interleukin (protein, UniProt P10749 118-269, looked up)
Interleukin-1 beta: VPIRQLHYRLRDEQQKSLVLSDPYELKALHLNGQNINQQVIFSMSFVQGEPSNDKIPVALGLKGKNLYLSCVMKDGTPTLQLESVDPKQYPKKKMEKRFVFNKIEVKSKVEFESAEFPNWYISTSQAEHKPVFLGNNSGQDIIDFTMESVSS

Key:
[1] = system: freshly isolated dendritic cells (CD11c+ splenocytes); assay: Dendritic cell (DC) assay: IL-12 release; format: cell-based, BALB/c mice; details: tested for synergism and inhibition
Description: In a preferred embodiment, dendritic cell (DC) assay is used to follow interleukin-12 (IL-12) release from freshly isolated dendritic cells as an index of DC activation (see section 13). […] Briefly, by way of example but not limitation, a DC assay can be carried out as follows: freshly isolated dendritic cells (CD11c^+ splenocytes, e.g., isolated from the spleens of BALB/c mice within ten hours of assaying the activity) are suspended at a density of 0.5×10^6 cells per mL in cytokine supplemented culture media (GM-CSF, 1.0 ng/ml; IL-4, 1.0 ng/ml; IFNg, 3 ng/ml; anti mouse CD40; 0.5 mg/ml). […] Mouse IL-12 release from the dendritic cells (CD11c^+ splenocytes) is then measured using ELISA.
DCs were isolated from the spleens of male BALB/c mice 8-12 weeks of age (Harlan Bioproducts for Science, Indianapolis, Ind.), using the magnetic assisted cell separation (MACS) system purchased from Miltenyi Biotech. In summary: Spleens were aseptically removed from mice and placed into a petri dish containing 5 mL holding media (DMEM/F12 supplemented with 10% FCS and antibiotics). Each spleen was then injected with ˜0.5 mls collagenase D solution (1 mg/mL in 10 mM Hepes-NaOH, pH 7.4, 150 mM NaCl, 5 mM MgCl2, 1.8 mM CaCl2), placed into 5-10 mL collagenase D, cut into 5-6 pieces and incubated at 37° C. for 45-60 min. Collagenase-digested spleens were then processed with glass slides and passed through a 70 μm nylon mesh cell strainer. After the strainer was flushed with 40 mL culture media, cells were centrifuged (8 min @ 200×G), suspended in 1 mL PBS and subjected to red blood cell lysis by incubating the cell suspension for 5 min at room temperature in 10 mL lysis buffer (155 mM NH4Cl, 10 mM KHCO3, 0.1 mM EDTA), followed by dilution in PBS to 50 mL and centrifugation (8 min @ 200×g). The splenocytes were then suspended in 10 mL MACS buffer (PBS pH 7.2, supplemented with 2 mM EDTA and 0.5% BSA), passed through a 40 μm nylon mesh cell strainer which was flushed with 40 mL MACS buffer. A preliminary cell count was taken at this time, prior to centrifugation (8 min @ 200×G). The splenocytes were suspended at a density of 10^8 cells per 400 μL MACS buffer. Paramagnetic MicroBeads coated with anti-CD11c antibody were mixed with the splenocyte suspension (100 μL per 10^8 cells), incubated at +4° C. for 15 min, washed, suspended in 1.0 mL MACS buffer and passed through a MS+separation column placed within a strong magnetic field. CD11c^+ cells were retained in the column whereas CD11c^− cells were washed off the column as the flow-through cell fraction. CD11c^+ cells were then collected by removing the column out of the magnetic field and flushing the column twice with 1 mL of MACS buffer. CD11c^+ cells were washed once with culture media and suspended at a density of 0.5×10^6 cells per mL in cytokine supplemented culture media {DMEM/F12 supplemented with 10% FCS and gentamicin containing mouse GM-CSF (1 ng/mL), mouse IL-4 (1 ng/mL), mouse IFNγ (3 ng/mL) and anti mouse CD40 (0.5 mg/mL)}.
Mouse IL12 release from CD11c^+ splenocytes was measured using ELISA. Briefly, CD11c+ cell culture supernatants were sampled following an overnight incubation (usually 15-18 hrs). Media samples (100 μL) were added to ELISA plates coated with anti mouse IL12 (p70) capture antibody (R&D #MAB419; 250 ng in 100 μL per well) and incubated either at 37° C. or room temperature for 2 hrs. The ELISA plates were washed extensively with wash buffer after which 100 μL per well of detection antibody/detection reagent (biotinylated anti-mouse IL12; R&D #BAF419 at 50 ng/mL and streptavidin-HRP) was added. The ELISA plates were again incubated for 2 hours, washed and exposed to […] substrate solution (Pierce #34021) for 20 min. The substrate reaction was stopped by adding 100 μL/well 2M H2SO4. ELISA plates were read at 450 nm (corrected at 540 nm) and mIL12(p70) levels were calculated using an intra-ELISA standard curve (range: 2000-31.25 pg/mL).

Mouse sarcoma 180 cells = format: cell-based; details: for Enhancement of NK-CMC compared to BEX: same conditions as BEX; for NK-CMC Activity: wide range of concentrations, in the presence and absence of IL-2 (125 U/ml)
Description: In one embodiment, a NK cell assay is used to assess ARP-induced cytotoxic activity of NK-like cells. Briefly, by way of example but not limitation, a NK cell assay can be carried out as follows: large granular lymphocytes (LGLs) are co-cultured with tumor cells at various ratios (effector to target ratio) for four days at 37° C., 5% CO2. […] The culture is terminated at the end of day 4 and vitally stained using a MTT cell viability quantification assay (see Mossman, T. J. Immunol. Methods 1983, 65:55; and Sigma Chemical MTT (M5655) product application note). Culture media is aspirated and the remaining cells are washed and replaced with DMEM/F12 plus FCS, containing MTT. The cells are further incubated for 4-5 hours at 37° C. Absorbance is measured with the aid of a plate reader. Decreased absorbance indicated a decrease in the number of viable cells per well (i.e., cytotoxicity). Absorbance is measured again after the MTT is solubilized by replacement of the medium with 2-propanol containing HCl, which gives a uniform color throughout the well. NK-inducing activity is calculated relative to negative (PBS/BSA) and positive (internal standard) controls.
Spleens (10-15 per experiment) were aseptically removed from male Balb/C mice 6-10 weeks of age. Splenocytes were “squeezed” out of spleens using 2 sterile glass microscope slides. Cells were collected in approximately 10 ml of DMEM/F12 containing 10% fetal calf serum (FCS) and gentamicin (50 μg/ml). Single cell suspensions were generated by passing collected cells through a 70 μm nylon mesh screen. After washing the cell pellet once with PBS (centrifuged at 675×g for 5 min), red blood cells were lysed by brief hypotonic shock (i.e. exposure to sterile distilled, deionized water, followed immediately with appropriate volumes of 10×PBS to return to isotonicity). Remaining cells were centrifuged and resuspended in DMEM/F12+10% FCS and transferred to 75 cm^2 flasks each containing 25 mls DMEM/F12+10% FCS (cells from 5 spleens per flask). The cells were incubated for 60 min. at 37° C. to selectively remove readily adherent cells (mainly fibroblasts and macrophages). After the incubation, the flasks were gently shaken and the non-adherent cells were removed, pelleted by centrifugation, and resuspended in DMEM/F12 (no supplements) (1.0 mL/10^8 cells). A 1.0 mL volume of these cell suspensions were carefully layered onto a 70%/60%/40% (2 mL/4 mL/4 mL) Percoll™ gradients in 15 ml centrifuge tubes and centrifuged for 30 min at 675×G. The cells which sediment at the 40/60 interface represent primarily large granular lymphocytes (LGLs), enriched with NK cells. These cells were carefully removed with a pasteur pipet, centrifuged, washed once with PBS and resuspended in approximately 5 mL DMEM/F12 supplemented with gentamicin (50 μg/mL) and 10% fetal calf serum. Cell counts and appropriate dilutions of LGL cells were made with these cells, as described below. For convenience this LGL cell preparation is interchangeably referred to as NK cells.
Mouse sarcoma 180 cells were seeded into 96 well plates at a density of 5×10^3 cells per well in 100 μl DMEM/F12, supplemented with 10% FCS and gentamicin (50 μg/mL). […] NK cells were added in 100 μL of supplemented DMEM/F12 at designated densities: 0 NK cells/well; 5×10^4 NK cells/well (1:10 target/effector ratio); 1.25×10^5 NK cells/well (1:25 target/effector ratio); 2.5×10^5 NK cells/well (1:50 target/effector ratio); and, 5×10^5 NK cells/well (1:100 target/effector ratio). (Note: routinely, only the 1:50 and 1:100 ratios were used for screening purposes. IL2 was added as a media supplement with final concentration of 125 U/mL.). Co-cultures were incubated for 4 days at 37° C., 5% CO2, and terminated and vitally stained using a MTT cell viability quantification assay (see Mossman, T. J. Immunol. Methods 65:55 (1983); and Sigma Chemical MTT (M5655) product application note). […]

Molecule | DC/mIL12 Release [1] | NK-CMC Activity (Mouse sarcoma 180 cells) | also measured
IFNγ: Interferon gamma | − |  | NK-inducing activity (Mouse sarcoma 180 cells): slight increase in NK-CMC; maximal response, cytotoxicity (Mouse sarcoma 180 cells): ^6Weakly activates NK cells in the presence of IL-2 (maximal response < 50% cytotoxicity).; Enhancement of NK-CMC compared to BEX (Mouse sarcoma 180 cells): relatively weak enhancers
TGFβ | − | − | 
FGFbasic: growth factor | − | − | 
IL-6: interleukin | − | − | 
IL-5: interleukin | − | − | 
TNFα | − |  | Enhancement of NK-CMC compared to BEX (Mouse sarcoma 180 cells): relatively weak enhancers
B1 | inhibitory | − | 
B2 | − |  | Effect on NK-CMC (footnotes of Table 16) (Mouse sarcoma 180 cells): ^4IL-2 significantly increases NK-CMC only at high concentrations.; basal NK-CMC activity (Mouse sarcoma 180 cells; IL2 alone (125 U/ml), highest NK:S180 ratio (100_NK)): 10-15%
B3 | − | −^3 | 
